Read-outs that look alike come from different tables or passages of the source.
Tests used:
LRRK2 pS935 [1] = test system: LRRK2 pS935; set-up: method as in Hermanson et al., 2012; conditions: ref Hermanson et al., 2012; read-out: IC50 pS935 levels, time-resolved FRET; cited from earlier work
[2] = target: T1, full length LRRK2 protein (Homo sapiens, UniProt Q5S007); assay: In vitro LRRKtide kinase assay with full length recombinant LRRK2, dose-response (IC50/pIC50); assay type: biochemical; conditions: read-out: IC50 (LRRKtide phosphorylation assay)
T1 construct: compounds were tested in triplicate with full length LRRK2 protein; made in house
T1 sequence (Q5S007 whole entry): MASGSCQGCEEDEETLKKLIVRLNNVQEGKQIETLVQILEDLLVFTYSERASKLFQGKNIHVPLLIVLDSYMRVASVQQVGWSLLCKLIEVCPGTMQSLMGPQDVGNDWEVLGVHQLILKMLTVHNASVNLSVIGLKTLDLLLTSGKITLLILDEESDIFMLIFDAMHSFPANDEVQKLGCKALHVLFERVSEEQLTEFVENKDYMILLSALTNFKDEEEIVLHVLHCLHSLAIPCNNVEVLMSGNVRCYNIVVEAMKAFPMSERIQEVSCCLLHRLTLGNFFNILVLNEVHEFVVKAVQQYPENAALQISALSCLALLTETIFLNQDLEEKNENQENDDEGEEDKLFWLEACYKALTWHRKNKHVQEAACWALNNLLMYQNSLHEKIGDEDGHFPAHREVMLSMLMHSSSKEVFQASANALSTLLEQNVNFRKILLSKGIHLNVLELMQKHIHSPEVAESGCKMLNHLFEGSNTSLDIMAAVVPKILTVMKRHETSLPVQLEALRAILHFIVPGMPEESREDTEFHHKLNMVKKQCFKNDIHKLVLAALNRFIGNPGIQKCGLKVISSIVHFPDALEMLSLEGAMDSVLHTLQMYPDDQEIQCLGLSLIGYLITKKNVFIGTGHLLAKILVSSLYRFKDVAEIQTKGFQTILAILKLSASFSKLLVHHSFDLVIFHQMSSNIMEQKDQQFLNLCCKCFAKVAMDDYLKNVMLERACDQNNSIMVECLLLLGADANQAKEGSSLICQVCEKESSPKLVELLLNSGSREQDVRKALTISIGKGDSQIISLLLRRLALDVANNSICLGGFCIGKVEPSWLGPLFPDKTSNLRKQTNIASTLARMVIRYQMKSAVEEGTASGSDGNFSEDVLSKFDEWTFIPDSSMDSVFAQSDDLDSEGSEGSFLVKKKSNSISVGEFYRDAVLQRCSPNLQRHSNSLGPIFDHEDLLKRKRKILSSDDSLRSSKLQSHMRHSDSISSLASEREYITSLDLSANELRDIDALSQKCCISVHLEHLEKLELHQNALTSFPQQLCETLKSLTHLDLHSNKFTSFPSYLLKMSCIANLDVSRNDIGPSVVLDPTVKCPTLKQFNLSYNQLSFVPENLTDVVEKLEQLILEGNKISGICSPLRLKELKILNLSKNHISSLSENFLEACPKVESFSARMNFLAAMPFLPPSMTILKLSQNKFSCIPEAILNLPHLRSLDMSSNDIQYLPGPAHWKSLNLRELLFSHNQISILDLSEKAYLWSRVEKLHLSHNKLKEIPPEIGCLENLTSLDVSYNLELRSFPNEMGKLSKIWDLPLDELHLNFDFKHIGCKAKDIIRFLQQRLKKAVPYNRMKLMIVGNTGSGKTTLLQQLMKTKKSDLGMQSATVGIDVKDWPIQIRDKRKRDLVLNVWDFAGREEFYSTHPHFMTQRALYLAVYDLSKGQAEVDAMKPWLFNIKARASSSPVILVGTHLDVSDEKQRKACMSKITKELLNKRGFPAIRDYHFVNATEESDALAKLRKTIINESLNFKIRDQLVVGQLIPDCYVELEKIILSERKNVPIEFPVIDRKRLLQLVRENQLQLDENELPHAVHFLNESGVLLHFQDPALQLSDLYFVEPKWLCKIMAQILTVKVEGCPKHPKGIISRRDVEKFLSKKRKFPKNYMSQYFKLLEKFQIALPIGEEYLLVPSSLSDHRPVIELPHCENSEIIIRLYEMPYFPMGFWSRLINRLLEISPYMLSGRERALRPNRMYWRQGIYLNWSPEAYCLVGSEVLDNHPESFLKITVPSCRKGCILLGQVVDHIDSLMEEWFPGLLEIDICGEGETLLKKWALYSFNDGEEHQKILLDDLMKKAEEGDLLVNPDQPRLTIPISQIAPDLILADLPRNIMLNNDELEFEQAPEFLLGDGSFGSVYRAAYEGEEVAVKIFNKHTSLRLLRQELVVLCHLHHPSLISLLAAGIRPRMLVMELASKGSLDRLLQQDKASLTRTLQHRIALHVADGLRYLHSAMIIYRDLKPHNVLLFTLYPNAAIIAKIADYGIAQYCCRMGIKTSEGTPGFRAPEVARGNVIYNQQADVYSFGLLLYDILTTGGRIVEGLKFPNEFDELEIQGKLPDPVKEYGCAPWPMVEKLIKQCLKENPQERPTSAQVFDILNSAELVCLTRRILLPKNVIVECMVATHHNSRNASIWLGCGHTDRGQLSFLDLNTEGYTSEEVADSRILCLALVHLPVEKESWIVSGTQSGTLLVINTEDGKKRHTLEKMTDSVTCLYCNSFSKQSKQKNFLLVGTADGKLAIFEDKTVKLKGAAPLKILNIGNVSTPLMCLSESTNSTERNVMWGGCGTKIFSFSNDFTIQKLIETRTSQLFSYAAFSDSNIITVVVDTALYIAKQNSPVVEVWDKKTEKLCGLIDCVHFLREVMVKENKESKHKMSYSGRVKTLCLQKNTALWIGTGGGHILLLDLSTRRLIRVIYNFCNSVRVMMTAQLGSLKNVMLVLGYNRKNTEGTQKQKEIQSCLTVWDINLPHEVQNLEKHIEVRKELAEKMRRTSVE

LRRK2 phospho-Ser935 = target: T2, LRRK2 phospho-Ser935 (Homo sapiens, UniProt Q5S007); assay: Cellular LRRK2 phosphoserine 935 dephosphorylation spotblot assay in SH-SY5Y cells stably expressing 3xFlag-LRRK2; assay type: cell-based; conditions: read-out: IC50 of phosphorylation at LRRK2 Ser935 (cellular spotblot)
T2 construct: expressed in transfected cells
T2 sequence (Q5S007 whole entry): as above

LRRK2 = conditions: 2011, read-out: IC50 in vitro LRRK2, published, cited from earlier work
LRRK2 pS935 [3] = test system: LRRK2 pS935; set-up: method as in Delbroek et al., 2013; conditions: ref Delbroek et al., 2013; read-out: IC50 pS935 levels, ELISA; cited from earlier work
LRRK2 pS935 [4] = test system: LRRK2 pS935; set-up: method as in Dzamko et al., 2010; Deng et al., 2011; conditions: ref Dzamko et al., 2010; Deng et al., 2011; read-out: IC50 pS935 levels, western blot; cited from earlier work

Row | Compound | IC50 (LRRK2 pS935 [1]) [nM] | IC50 ([2]; full length LRRK2, 10 μM ATP) [nM] | IC50 (LRRK2 phospho-Ser935; SH-SY5Y stably overexpressing 3flag-LRRK2 WT, N ≥ 5) [nM] | IC50 (LRRK2; 100 μM ATP in original study, ref Deng et al.) [nM] | IC50 (LRRK2 pS935 [3]) [nM] | IC50 (LRRK2 pS935 [4]) [nM] | IC50 [2] [nM] | IC50 (LRRK2 phospho-Ser935) [nM] | IC50 (LRRK2; ref Ramsden et al.) [nM]
1 | COc1cc(C(=O)N2CCC(N3CCN(C)CC3)CC2)ccc1Nc1ncc2c(n1)N(C)c1ccccc1C(=O)N2C [LRRK2-IN1] | 90 to 200 | 3.54 | 239 | 13 | 50 to 100 | ~100 |  |  | 
2 | COc1cc(N2CCOCC2)ccc1Nc1ncc(F)c(Nc2ccccc2NS(C)(=O)=O)n1 [CZC-25146] |  |  |  |  |  |  | 1.78 | 61 | 4.76

From PMC4042160, “In silico, in vitro and cellular analysis with a kinome-wide inhibitor panel correlates cellular LRRK2 dephosphorylation to inhibitor activity on LRRK2” (Frontiers in Molecular Neuroscience, 2014)
